From publication PMC8646516 (CPT: Pharmacometrics & Systems Pharmacology, 2021)
Like-named read-outs stand apart in the source and are kept apart here.

What was measured:
[1] = cited from earlier work
[2] = samples >20 h postdose, median (IQR)
[3] = system: hospitalized patients with COVID‐19; conditions: cited from earlier work
[4] = cited from earlier work; remark: listed apart in the source
[5] = imatinib N = 197 vs placebo N = 188

## Cc1ccc(NC(=O)c2ccc(CN3CCNCC3)cc2)cc1Nc1nccc(-c2cccnc2)n1 [N‐desmethyl imatinib]
[1]; formed by CYP3A4
  Metabolite AUC as % of the parent AUC: ~ 10%
[1]; relative to imatinib
  Activity of the metabolite: active

## Cc1ccc(NC(=O)c2ccc(CN3CCN(C)CC3)cc2)cc1Nc1nccc(-c2cccnc2)n1 [imatinib]
[2]; COVID-19 subset 1 (model building)
  Observed total imatinib plasma concentration Ctrough: 2156 (738–4179) µg/L
[2]; COVID-19 subset 2 (validation set)
  Observed total imatinib plasma concentration Ctrough: 1791 (928.4–3204) µg/L
[1]
  Drug excreted by renal excretion: 13%
  Drug excreted via the feces: 68%
[1]; of the excreted drug
  Excreted unchanged: 25%
[1]; oral
  Bioavailability: almost complete
[3]; CounterCOVID
  Premature treatment stop due to gastrointestinal (GI) toxicity: more imatinib treated patients stopped treatment prematurely
[3]; [5]
  Duration of invasive mechanical ventilation compared with placebo: shorter
  Mortality compared with placebo: significantly lower
[4]
  Protein bound in blood: > 95%
